According to the supplement of paper PMC10627819:

Legend:
Test in all cases: Bliss interaction score (quartile over a dose matrix) (fitness difference); higher = more antagonism (negative = synergy)
B. subtilis 168 = tested on: B. subtilis 168
Outline: (§1)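 The Bliss score is observed fitness minus expected fitness, where the expected value is the product of single-drug fitness values inferred from combination data. Fitness is OD595 at entry into stationary phase normalised to the plate's robust no-drug mean and capped at 1. Scores are reported as quartiles spanning technical, biological and donor/recipient replicates.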

S. aureus DSM 20231 = tested on: S. aureus DSM 20231
Outline: as §1

S. aureus Newman = tested on: S. aureus Newman
Outline: as §1

S. pneumoniae D39V = tested on: S. pneumoniae D39V
Outline: as §1
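Further: first quartile when negative (synergy) and third quartile when positive (antagonism).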

| Structure (SMILES) | Bliss interaction score (B. subtilis 168) | Bliss interaction score (S. aureus DSM 20231) | Bliss interaction score (S. aureus Newman) | Bliss interaction score (S. pneumoniae D39V) | Bliss interaction score (B. subtilis 168; main component drawn) | Bliss interaction score (S. aureus DSM 20231; main component drawn) | Bliss interaction score (S. aureus Newman; main component drawn) | Bliss interaction score (S. pneumoniae D39V; main component drawn) |
| --- | --- | --- | --- | --- | --- | --- | --- | --- |
| N#CC(C#N)=NNc1cccc(Cl)c1 [CCCP] + CC1(C)S[C@@H]2[C@H](NC(=O)Cc3ccccc3)C(=O)N2[C@H]1C(=O)O [PenicillinG] | 0.0568 | 0.0402 | -0.0514 | 0.0767 |  |  |  |  |
| N#CC(C#N)=NNc1cccc(Cl)c1 [CCCP] + CC1=C(C(=O)O)N2C(=O)[C@@H](NC(=O)[C@H](N)c3ccccc3)[C@H]2SC1 [Cephalexin] | 0.0431 | 0.0708 | -0.0498 | -0.0759 |  |  |  |  |
| N#CC(C#N)=NNc1cccc(Cl)c1 [CCCP] + CC1=C\[C@@H](O)CC(=O)Cc2nc(co2)C(=O)N2CCC=C2C(=O)O[C@H](C(C)C)[C@H](C)/C=C/C(=O)NC\C=C\1 [Virginiamycin M1] | -0.0262 | 0.0407 | -0.0388 | 0.0981 |  |  |  |  |
| N#CC(C#N)=NNc1cccc(Cl)c1 [CCCP] + CC(=O)NC[C@H]1CN(c2ccc(N3CCOCC3)c(F)c2)C(=O)O1 [Linezolid] | 0.0322 | -0.0274 | 0.0931 | 0.0853 |  |  |  |  |
| N#CC(C#N)=NNc1cccc(Cl)c1 [CCCP] + CC(=O)O[C@H]1C[C@@]2(C)[C@@H](C[C@@H](O)[C@H]3[C@@]4(C)CC[C@@H](O)[C@@H](C)[C@@H]4CC[C@@]32C)/C1=C(\CCC=C(C)C)C(=O)O [Fusidic acid] | -0.18 | 0.0429 | 0.0673 | 0.122 |  |  |  |  |
| N#CC(C#N)=NNc1cccc(Cl)c1 [CCCP] + CC(C1CCC(C(O1)OC2C(CC(C(C2O)OC3C(C(C(CO3)(C)O)NC)O)N)N)N)NC [Gentamicin] |  |  |  |  | 0.259 | 0.0926 | 0.116 | 0.0882 |
| N#CC(C#N)=NNc1cccc(Cl)c1 [CCCP] + CCC(C)C1C(=O)NC(=C)C(=O)NC(C(=O)NC(CSCC(C(=O)N1)NC(=O)/C(=C/C)/NC(=O)C(C(C)CC)N)C(=O)NC2C(SCC(NC(=O)CNC(=O)C3CCCN3C2=O)C(=O)NC(CCCCN)C(=O)NC4C(SCC(NC(=O)CNC(=O)C(NC(=O)C(NC(=O)C(NC(=O)CNC4=O)C)CC(C)C)CCSC)C(=O)NC(CC(=O)N)C(=O)NC(CCSC)C(=O)NC(CCCCN)C(=O)NC5C(SCC6C(=O)NC(C(=O)NC(CSC(C(C(=O)N6)NC(=O)C(NC5=O)C)C)C(=O)NC(CO)C(=O)NC(C(C)CC)C(=O)NC(CC7=CN=CN7)C(=O)NC(C(C)C)C(=O)NC(=C)C(=O)NC(CCCCN)C(=O)O)CC8=CN=CN8)C)C)C)CC(C)C [Nisin] |  |  |  |  | 0.0522 | 0.0712 | -0.0401 | -0.0317 |
| N#CC(C#N)=NNc1cccc(Cl)c1 [CCCP] + CCCCCCCCCC(=O)N[C@@H]1[C@H]([C@@H]([C@H](O[C@H]1OC2=C3C=C4C=C2OC5=C(C=C(C=C5)[C@H]([C@H]6C(=O)N[C@@H](C7=C(C(=CC(=C7)O)OC8[C@H]([C@H]([C@@H]([C@H](O8)CO)O)O)O)C9=C(C=CC(=C9)[C@H](C(=O)N6)NC(=O)[C@@H]4NC(=O)[C@@H]1C2=CC(=CC(=C2)OC2=C(C=CC(=C2)[C@H](C(=O)N[C@H](CC2=CC(=C(O3)C=C2)Cl)C(=O)N1)N)O)O)O)C(=O)O)O[C@H]1[C@@H]([C@H]([C@@H]([C@H](O1)CO)O)O)NC(=O)C)Cl)CO)O)O [Teicoplanin] |  |  |  |  | 0.17 | 0.0772 | -0.0483 | 0.096 |
| N#CC(C#N)=NNc1cccc(Cl)c1 [CCCP] + CCC[C@@H]1C[C@@H](C(=O)N[C@@H]([C@H]2O[C@H](SC)[C@H](O)[C@@H](O)[C@H]2O)[C@@H](C)O)N(C)C1 [Lincomycin] | -0.0311 | -0.0627 | 0.116 | 0.0513 |  |  |  |  |
| N#CC(C#N)=NNc1cccc(Cl)c1 [CCCP] + CCC[C@@H]1C[C@@H](C(=O)N[C@@H]([C@H]2O[C@H](SC)[C@H](O)[C@@H](O)[C@H]2O)[C@H](C)Cl)N(C)C1 [Clindamycin] | -0.0426 | 0.0216 | 0.0938 | -0.138 |  |  |  |  |
| N#CC(C#N)=NNc1cccc(Cl)c1 [CCCP] + CCN(CC)CCOC(=O)c1ccc(N)cc1 [Procaine] | 0.0328 | -0.0522 | -0.0249 | 0.0668 |  |  |  |  |
| N#CC(C#N)=NNc1cccc(Cl)c1 [CCCP] + CC[C@H]1OC(=O)[C@H](C)C(=O)[C@H](C)[C@@H](O[C@@H]2O[C@H](C)C[C@H](N(C)C)[C@H]2O)[C@](C)(OC)C[C@@H](C)C(=O)[C@H](C)[C@H]2N(CCCCn3cnc(-c4cccnc4)c3)C(=O)O[C@]12C [Telithromycin] | -0.0441 | -0.0246 | -0.0206 | -0.0245 |  |  |  |  |
| N#CC(C#N)=NNc1cccc(Cl)c1 [CCCP] + CC[C@H]1OC(=O)[C@H](C)[C@@H](O[C@H]2C[C@@](C)(OC)[C@@H](O)[C@H](C)O2)[C@H](C)[C@@H](O[C@@H]2O[C@H](C)C[C@H](N(C)C)[C@H]2O)[C@](C)(O)C[C@@H](C)C(=O)[C@H](C)[C@@H](O)[C@]1(C)O [Erythromycin] | -0.0587 | 0.023 | 0.0472 | -0.0863 |  |  |  |  |
